This is an account of results in patent US20080064754A1, “Amino ion releasing hydrogen bonded molecule” (priority 2006, published 2008).

In one data set the test system is laboratory mice. Put plainly: LD-50 animal safety studies. In kind it is in vivo. The conditions noted are these: oral feeding, intravenous infusion and inhalation, up to 50 percent liquid or 100 percent powder. How it is done: Applicant has tested the final reaction product in LD-50 animal (laboratory mice) studies. These studies were conducted with oral feeding, intravenous infusion and inhalation. […] (Applicant's testing facility was unable to kill the mice with very high concentrations (up to 50 percent liquid or 100 percent powder) of Applicant's Tri-Amino.

For data set [1], the system named is wounds, burns (of all degrees) and several types of chronic lesions. Kind of data set: Wound healing, anecdotal preliminary experiment. In kind it is in vivo.
A short description of data set [2]: Hygroscopicity of the powder. In kind it is physicochemical. The source says: Tri-Amino is a hygroscopic powder and as such is a valuable additive to moisturizing cosmetics.
A further data set deals with microcirculation. In kind it is in vivo. The source says:
This acceleration of microcirculation has many positive benefits.

The next data set concerns inflammation. Put plainly: Anti-inflammatory, anecdotal preliminary experiment. In kind it is in vivo. The conditions noted are these: all forms of delivery.
For data set [3] the following is noted: cited from earlier work.

“2-amino 5-triaminoguanidovalericbenzoicdiacetate [Tri-Amino]”: the “toxicity in LD-50 studies” value with laboratory mice was “no toxicity what-so-ever”. Further, in data set [1], the “healing of wounds, burns and chronic lesions” value is “ability to aid and accelerate the healing of wounds, burns (of all degrees) and several types of chronic lesions”; the lesions healed result is given as “radiation burns (third degree with complete suppression of scar formation), squamous cell carcinoma, basal cell carcinoma, psoriasis, venous stasis ulcers, decubitus ulcers (bed sores), deep surgical wounding (with suppression of scar formation), oral & genital herpes”. Also, the hygroscopicity entry in data set [2] is “hygroscopic”. For the same molecule, the “toxic side effects on acceleration of microcirculation” value with microcirculation (in vivo) is “without toxic side effects”. The vaso-dilating qualities result with microcirculation (topically or internally, anecdotal, preliminary) is “exhibited vaso-dilating qualities”. Also, the anti-inflammatory qualities entry with inflammation is reported as “shown anti-inflammatory qualities”.
With `Nc1ccc(C(=O)O)cc1` [PABA, p-aminobenzoic acid], the solubility in water result in data set [3] was “slightly soluble in water”.
